Where “and” joins values, the source holds several entries; their conditions need not be identical. Equal values may be shown once. Toxic doses and inconclusive results are not listed.
Tested on: BDF1 mice, L1210 leukemia sc, survival T/C
Assay: NCI In Vivo Anticancer Drug Screen. Data for tumor model L1210 Leukemia (subcutaneous) in B6D2F1 (BDF1) mice
Details: higher = longer survival
How it was run: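 Expressed as T/C: measurement in compound-treated, tumor-bearing mice relative to vehicle-treated control mice, based on survival or tumor size.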

CN(Cc1cnc2nc(N)nc(N)c2n1)c1ccc(C(=O)N[C@@H](CCC(=O)O)C(=O)O)cc1
T/C (endpoint: mean survival time, dose: 0.65 mg/kg/injection, schedule: Q01DX009 (sc), vehicle: other): 166 % of control and 168 % of control
T/C (endpoint: mean survival time, dose: 1.0 mg/kg/injection, schedule: Q01DX015 (ip), vehicle: other): 158 % of control and 163 % of control and 171 % of control
T/C (endpoint: mean survival time, dose: 1.08 mg/kg/injection, schedule: Q01DX009 (sc), vehicle: other): 158 % of control
T/C (endpoint: mean survival time, dose: 1.8 mg/kg/injection, schedule: Q01DX009 (sc), vehicle: other): 171 % of control
T/C (endpoint: mean survival time, dose: 2.0 mg/kg/injection, schedule: Q01DX009 (ip), vehicle: sodium bicarbonate): 154 % of control and 166 % of control
T/C (endpoint: mean survival time, dose: 4.0 mg/kg/injection, schedule: Q01DX009 (ip), vehicle: sodium bicarbonate): 88 % of control
T/C (endpoint: mean survival time, dose: 20.0 mg/kg/injection, schedule: Q04DX003 (ip), vehicle: sodium bicarbonate): 158 % of control
T/C (endpoint: mean survival time, dose: 45.0 mg/kg/injection, schedule: Q04DX004 (ip), vehicle: other): 99 % of control and 101 % of control
T/C (endpoint: mean survival time, dose: 60.0 mg/kg/injection, schedule: Q04DX004 (ip), vehicle: other): 90 % of control and 105 % of control and 124 % of control
T/C (endpoint: mean survival time, dose: 80.0 mg/kg/injection, schedule: Q04DX003 (ip), vehicle: sodium bicarbonate): 91 % of control
T/C (endpoint: mean survival time, dose: 200.0 mg/kg/injection, schedule: Q01DX001 (ip), vehicle: other): 91 % of control and 111 % of control and 116 % of control
T/C (endpoint: median survival time, dose: 0.01 mg/kg/injection, schedule: Q## X Z (sc), vehicle: other): 100 % of control
T/C (endpoint: median survival time, dose: 0.02 mg/kg/injection, schedule: Q## X Z (sc), vehicle: other): 100 % of control
T/C (endpoint: median survival time, dose: 0.03 mg/kg/injection, schedule: Q## X Z (sc), vehicle: other): 105 % of control
T/C (endpoint: median survival time, dose: 0.05 mg/kg/injection, schedule: Q#A X Z (sc), vehicle: other): 105 % of control
T/C (endpoint: median survival time, dose: 0.14 mg/kg/injection, schedule: Q#A X Z (sc), vehicle: other): 122 % of control
T/C (endpoint: median survival time, dose: 0.17 mg/kg/injection, schedule: Q01DX Z (iv), vehicle: other): 112 % of control
T/C (endpoint: median survival time, dose: 0.23 mg/kg/injection, schedule: Q01DX Z (ip), vehicle: other): 100 % of control
T/C (endpoint: median survival time, dose: 0.23 mg/kg/injection, schedule: Q01DX Z (sc), vehicle: sodium bicarbonate): 109 % of control
T/C (endpoint: median survival time, dose: 0.24 mg/kg/injection, schedule: Q01DX Z (sc), vehicle: other): 104 % of control and 108 % of control
T/C (endpoint: median survival time, dose: 0.3 mg/kg/injection, schedule: Q01DX Z (sc), vehicle: other): 112 % of control
T/C (endpoint: median survival time, dose: 0.39 mg/kg/injection, schedule: Q01DX006 (sc), vehicle: other): 110 % of control
T/C (endpoint: median survival time, dose: 0.39 mg/kg/injection, schedule: Q01DX008 (sc), vehicle: other): 110 % of control
T/C (endpoint: median survival time, dose: 0.39 mg/kg/injection, schedule: Q01DX009 (sc), vehicle: other): 122 % of control
T/C (endpoint: median survival time, dose: 0.39 mg/kg/injection, schedule: Q01DX Z (ip), vehicle: other): 105 % of control
T/C (endpoint: median survival time, dose: 0.47 mg/kg/injection, schedule: Q01DX Z (iv), vehicle: other): 112 % of control
T/C (endpoint: median survival time, dose: 0.47 mg/kg/injection, schedule: Q01DX Z (oral), vehicle: other): 112 % of control
T/C (endpoint: median survival time, dose: 0.65 mg/kg/injection, schedule: Q01DX008 (sc), vehicle: other): 155 % of control and 166 % of control
T/C (endpoint: median survival time, dose: 0.65 mg/kg/injection, schedule: Q01DX009 (sc), vehicle: other): 169 % of control
T/C (endpoint: median survival time, dose: 0.65 mg/kg/injection, schedule: Q01DX017 (sc), vehicle: sodium bicarbonate): 166 % of control
T/C (endpoint: median survival time, dose: 0.65 mg/kg/injection, schedule: Q01DX Z (oral), vehicle: other): 90 % of control
T/C (endpoint: median survival time, dose: 0.65 mg/kg/injection, schedule: Q02DX009 (sc), vehicle: other): 111 % of control
T/C (endpoint: median survival time, dose: 0.65 mg/kg/injection, schedule: Q02DX Z (sc), vehicle: other): 111 % of control
T/C (endpoint: median survival time, dose: 1.08 mg/kg/injection, schedule: Q01DX006 (sc), vehicle: other): 150 % of control
T/C (endpoint: median survival time, dose: 1.08 mg/kg/injection, schedule: Q01DX008 (sc), vehicle: other): 160 % of control and 166 % of control
T/C (endpoint: median survival time, dose: 1.08 mg/kg/injection, schedule: Q01DX009 (ip), vehicle: sodium bicarbonate): 156 % of control and 166 % of control and 168 % of control
T/C (endpoint: median survival time, dose: 1.08 mg/kg/injection, schedule: Q01DX017 (sc), vehicle: sodium bicarbonate): 158 % of control
T/C (endpoint: median survival time, dose: 1.08 mg/kg/injection, schedule: Q01DX Z (ip), vehicle: other): 160 % of control
T/C (endpoint: median survival time, dose: 1.08 mg/kg/injection, schedule: Q01DX Z (oral), vehicle: other): 110 % of control
T/C (endpoint: median survival time, dose: 1.08 mg/kg/injection, schedule: Q02DX009 (sc), vehicle: other): 119 % of control
T/C (endpoint: median survival time, dose: 1.08 mg/kg/injection, schedule: Q02DX Z (sc), vehicle: other): 122 % of control
T/C (endpoint: median survival time, dose: 1.08 mg/kg/injection, schedule: Q#A X Z (sc), vehicle: other): 166 % of control
T/C (endpoint: median survival time, dose: 1.5 mg/kg/injection, schedule: Q01DX009 (ip), vehicle: sodium bicarbonate): 155 % of control and 167 % of control
T/C (endpoint: median survival time, dose: 1.8 mg/kg/injection, schedule: Q01DX006 (sc), vehicle: other): 155 % of control
T/C (endpoint: median survival time, dose: 1.8 mg/kg/injection, schedule: Q01DX008 (sc), vehicle: other): 160 % of control
T/C (endpoint: median survival time, dose: 1.8 mg/kg/injection, schedule: Q01DX009 (ip), vehicle: sodium bicarbonate): 166 % of control and 171 % of control
T/C (endpoint: median survival time, dose: 2.89 mg/kg/injection, schedule: Q01DX Z (ip), vehicle: other): 155 % of control
T/C (endpoint: median survival time, dose: 3.0 mg/kg/injection, schedule: Q01DX006 (sc), vehicle: other): 160 % of control and 166 % of control
T/C (endpoint: median survival time, dose: 3.0 mg/kg/injection, schedule: Q01DX008 (sc), vehicle: other): 160 % of control
T/C (endpoint: median survival time, dose: 3.0 mg/kg/injection, schedule: Q01DX010 (sc), vehicle: other): 161 % of control
T/C (endpoint: median survival time, dose: 3.0 mg/kg/injection, schedule: Q01DX012 (ip), vehicle: sodium bicarbonate): 122 % of control
T/C (endpoint: median survival time, dose: 3.0 mg/kg/injection, schedule: Q01DX Z (oral), vehicle: other): 160 % of control
T/C (endpoint: median survival time, dose: 3.0 mg/kg/injection, schedule: Q02DX009 (sc), vehicle: other): 164 % of control
T/C (endpoint: median survival time, dose: 3.0 mg/kg/injection, schedule: Q02DX Z (sc), vehicle: other): 166 % of control
T/C (endpoint: median survival time, dose: 3.02 mg/kg/injection, schedule: Q01DX Z (sc), vehicle: other): 166 % of control
T/C (endpoint: median survival time, dose: 3.64 mg/kg/injection, schedule: Q01DX Z (sc), vehicle: other): 166 % of control
T/C (endpoint: median survival time, dose: 3.9 mg/kg/injection, schedule: Q01DX Z (sc), vehicle: other): 150 % of control
T/C (endpoint: median survival time, dose: 4.0 mg/kg/injection, schedule: Q01DX Z (sc), vehicle: water): 155 % of control
T/C (endpoint: median survival time, dose: 4.7 mg/kg/injection, schedule: Q01DX Z (sc), vehicle: other): 166 % of control
T/C (endpoint: median survival time, dose: 5.0 mg/kg/injection, schedule: Q01DX009 (ip), vehicle: sodium bicarbonate): 166 % of control and 171 % of control
T/C (endpoint: median survival time, dose: 5.0 mg/kg/injection, schedule: Q01DX025 (sc), vehicle: other): 168 % of control
T/C (endpoint: median survival time, dose: 5.0 mg/kg/injection, schedule: Q01DX Z (sc), vehicle: sodium bicarbonate): 100 % of control
T/C (endpoint: median survival time, dose: 6.0 mg/kg/injection, schedule: Q01DX009 (ip), vehicle: sodium bicarbonate): 119 % of control
T/C (endpoint: median survival time, dose: 6.0 mg/kg/injection, schedule: Q01DX Z (oral), vehicle: other): 156 % of control
T/C (endpoint: median survival time, dose: 14.0 mg/kg/injection, schedule: Q## X Z (sc), vehicle: other): 109 % of control and 113 % of control
T/C (endpoint: median survival time, dose: 62.5 mg/kg/injection, schedule: Q01DX001 (sc), vehicle: other): 111 % of control
T/C (endpoint: median survival time, dose: 65.0 mg/kg/injection, schedule: Q04DX005 (sc), vehicle: sodium bicarbonate): 108 % of control
T/C (endpoint: median survival time, dose: 65.0 mg/kg/injection, schedule: Q## X Z (sc), vehicle: other): 152 % of control
T/C (endpoint: median survival time, dose: 100.0 mg/kg/injection, schedule: Q01DX001 (sc), vehicle: sodium bicarbonate): 150 % of control
T/C (endpoint: median survival time, dose: 108.0 mg/kg/injection, schedule: Q## X Z (sc), vehicle: other): 117 % of control
T/C (endpoint: median survival time, dose: 125.0 mg/kg/injection, schedule: Q01DX001 (sc), vehicle: other): 116 % of control

Reference: PubChem BioAssay AID250 (DTP/NCI, 2004)
